From patent US8592432B2, “Compounds and compositions as protein kinase inhibitors” (priority 2008, dated 2013)

Molecular target: ALK (Homo sapiens (Human), UniProt Q9UM73)
Assay: ALK IC50 (Tables 1-4)
Type: biochemical
Description: Assays are incubated for 10 min at ambient temperature. […] Following washing (0.5% H3PO4), plates are counted in a liquid scintillation counter. IC50 values are calculated by linear regression analysis of the percentage inhibition.
Compounds of the present invention may be assessed for their ability to inhibit ALK using assays described below, as well as other assays known in the art.

Sequence of ALK (Q9UM73 1116-1392): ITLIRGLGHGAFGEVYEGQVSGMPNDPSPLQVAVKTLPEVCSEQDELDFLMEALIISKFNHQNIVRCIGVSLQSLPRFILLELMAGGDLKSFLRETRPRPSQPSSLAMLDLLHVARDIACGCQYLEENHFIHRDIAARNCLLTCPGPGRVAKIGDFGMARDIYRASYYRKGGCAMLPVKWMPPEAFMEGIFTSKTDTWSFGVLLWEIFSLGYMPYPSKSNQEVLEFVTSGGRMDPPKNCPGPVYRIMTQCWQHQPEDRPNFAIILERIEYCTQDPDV

IC50: 20 nM
SMILES: Cc1cc(Nc2nc(Nc3ccccc3S(=O)(=O)C(C)C)c3c(C)n[nH]c3n2)c(OC(C)C)cc1C1CCN(C)CC1 [Compound 34, N6-(2-isopropoxy-5-methyl-4-(1-methylpiperidin-4-yl)phenyl)-N4-(2-(isoproplsulfonyl)phenyl)-3-methyl-1H-pyrazolo[3,4-d]pyrimidine-4,6-diamine]
